Data as given in US20210263015A1, “MEASUREMENT METHOD” (priority 2018, published 2021).

How the values were obtained:
Format in all cases: cell-based
[1] = tested on: Cerebral cortex neurons derived from human iPS cells; assay: Neural activity propagation in neural network of nerve cell device on MEA (4-AP)
Text: FIG. 3 is a diagram showing the results of measuring by MEA (16 channels) the effect of 4-aminopyridines (4-AP) on the propagation speed of action potential in a neural network included in a nerve cell device. (A) is a raster plot diagram of the electrical signal measured by MEA after the addition of DMSO (upper figure) or 4-AP (lower figure). (B) is a diagram showing the results of measuring the time taken by the action potential in a neural network from the channel number 1 of the MEA to the channel number 16 (the channel at the diagonal of the MEA) after the addition of 4-AP (0.3, 1, and 3 μM) or DMSO and before the addition of the drug. The results are relative values in which the action potential arrival time in case of before the addition of the drug is taken as 100, and indicated by the average ±standard error (n=4). The decrease in the relative value of arrival time of action potential indicates an increase in the propagation speed of the action potential.
An oriented PS fiber sheet obtained by mounting a stainless steel circular frame produced in Example 1 was hydrophilized by plasma treatment using a desktop plasma treatment apparatus (STREX Inc.), and then coated with poly-D-lysine and laminin. […] The nerve action potential and the propagation direction of the neural activity were measured. […]

[2] = tested on: spinal motion neuron derived from human iPS cells
[3] = tested on: Cerebral cortex neurons derived from human iPS cells; assay: Neural activity propagation in neural network of nerve cell device on MEA (picrotoxin), cerebral cortex neurons; details: picrotoxin 0.1-10 μm; cerebral cortex neurons seeded at 8×10^5 or 24×10^5 cells/cm^2; relative to vehicle (DMSO)
Procedure: (§1) FIG. 4 is a diagram showing the results obtained by measuring the effect of picrotoxin by changing its concentration on the propagation speed of action potential in a neural network included in a nerve cell device having a different cell seeding density. As nerve cells, XCL-1 neurons (Xcell Science, US) were seeded at density of 3×10^5 cells/cm^2 (A) and 9×10^5 cells/cm^2 (B) or cerebral cortex neurons derived from human iPS cells (Axol Bioscience, UK) were seeded at density of 8x10^5 cells/cm^2 (C) and 24×10^5 cells/cm^2 (D) and cultured for 6 weeks. The concentrations of picrotoxin were 0.1, 0.3, 1, 3 and 10 μM. The results are relative values in which the propagation speed of action potential in case of the addition of vehicle (DMSO, a solvent in the drug) is taken as 100, and indicated by the average ±standard error (A, n=3; B, n=6; C, n=2; D, n=4).
(§2) An oriented PS fiber sheet obtained by mounting a stainless steel circular frame produced in Example 1 was hydrophilized by plasma treatment using a desktop plasma treatment apparatus (STREX Inc.), and then coated with poly-D-lysine and laminin. […] The nerve action potential was determined.

[4] = tested on: Nerve cells derived from human iPS cells (XCL-1 neuron); assay: Neural activity propagation in neural network of nerve cell device on MEA (picrotoxin), XCL-1 neurons; details: picrotoxin 0.1-10 μm; XCL-1 neurons seeded at 3×10^5 or 9×10^5 cells/cm^2; relative to vehicle (DMSO)
Procedure: as §1, §2

Molecule: Nc1ccncc1 [4-AP, 4-aminopyridin]
- propagation speed of neural activity ([1]; 4-AP 3 μM, channel 1 to channel 16 of MEA, DMSO 0.14 m/sec): 0.39 m/sec
- propagation speed of neural activity, concentration dependence (relative action potential arrival time) ([1]; 4-AP 0.3, 1 and 3 μM, n=4): increase dependently with the concentration of 4-AP

Molecule: NC1=N[C@H](O)[C@H]2[C@H]3O[C@]4(O)O[C@@H]([C@@H](O)[C@@]2(N1)[C@@H]4O)[C@]3(O)CO [TTX, tetrodotoxin]
- peak time of action potential [2]: delayed

Molecule: picrotoxin
- propagation speed of action potential, concentration dependence [3]: an increase in propagation speed of a concentration-dependent action potential was observed
- propagation speed of action potential, concentration dependence [4]: an increase in propagation speed of a concentration-dependent action potential was observed
